{
  "source": "paper PMC4784921",
  "about": "“Antioxidant Activity and α-Glucosidase Inhibitory Activities of the Polycondensate of Catechin with Glyoxylic Acid” (PLoS ONE, 2016)",
  "target": "T1, α-glucosidase (from Saccharomyces cerevisiae)",
  "T1 construct": "gene MAL12; commercial enzyme from Sigma (St. Louis, MO)",
  "assay": "absorbance at […] nm, pNP-G hydrolysis",
  "format": "biochemical",
  "conditions": "pNP-G substrate (1 mL of 1 mM), 0.1 M PBS pH 6.9, 37°C, 10 min preincubation; mixed noncompetitive and anticompetitive",
  "data": [
    {"molecule": "Oc1cc(O)c2c(c1)O[C@H](c1ccc(O)c(O)c1)[C@@H](O)C2", "note": "[catechin]", "values": [
      {"measurement": "IC50", "value": 239.27, "unit": "µg/mL"}
    ]}
  ]
}
